≈ marks a conversion by molar mass, not a printed value.
Assays:
Type in all cases: functional, organism-based
Zymoseptoria tritici [1] = test: Antifungal activity against azoxystrobin-sensitive Zymoseptoria tritici IPO323 carrying cytochrome-b G143 allele assessed as inhibition of spore germination after 2 days at 18 degC by spotting on PDA medium assay; settings: IPO323, 48 h
Zymoseptoria tritici [2] = test: Antifungal activity against azoxystrobin-sensitive Zymoseptoria tritici T0466 carrying cytochrome-b G143 allele assessed as inhibition of spore germination after 2 days at 18 degC by spotting on PDA medium assay; settings: T0466, 48 h
Zymoseptoria tritici [3] = test: Antifungal activity against azoxystrobin-resistant Zymoseptoria tritici T0290 carrying cytochrome-b A143 allele assessed as inhibition of spore germination after 2 days at 18 degC by spotting on PDA medium assay; settings: T0290, 48 h
Zymoseptoria tritici [4] = test: Antifungal activity against azoxystrobin-resistant Zymoseptoria tritici T0293 carrying cytochrome-b A143 allele assessed as inhibition of spore germination after 2 days at 18 degC by spotting on PDA medium assay; settings: T0293, 48 h
Zymoseptoria tritici [5] = test: Antifungal activity against azoxystrobin-sensitive Zymoseptoria tritici T0466 carrying cytochrome-b G143 allele assessed as fungal growth inhibition after 6 days at 20 degC by microplate without alamar blue assay; settings: T0466, 144 h
Zymoseptoria tritici [6] = test: Antifungal activity against azoxystrobin-resistant Zymoseptoria tritici T0251 carrying cytochrome-b A143 allele assessed as fungal colony perpendicular diameter changes after 10 days at 18 degC by spotting on PDA medium assay; settings: T0251, 240 h
Zymoseptoria tritici [7] = test: Antifungal activity against azoxystrobin-resistant Zymoseptoria tritici T049 carrying cytochrome-b A143 allele assessed as inhibition of spore germination after 2 days at 18 degC by spotting on PDA medium assay; settings: T049, 48 h
Zymoseptoria tritici [8] = test: Antifungal activity against azoxystrobin-resistant Zymoseptoria tritici T0251 carrying cytochrome-b A143 allele assessed as fungal growth inhibition after 6 days at 20 degC by microplate without alamar blue assay; settings: T0251, 144 h
Zymoseptoria tritici [9] = test: Antifungal activity against azoxystrobin-resistant Zymoseptoria tritici T0262 carrying cytochrome-b A143 allele assessed as inhibition of spore germination after 2 days at 18 degC by spotting on PDA medium assay; settings: T0262, 48 h
Zymoseptoria tritici [10] = test: Antifungal activity against azoxystrobin-resistant Zymoseptoria tritici T0254 carrying cytochrome-b A143 allele assessed as fungal colony perpendicular diameter changes after 10 days at 18 degC by spotting on PDA medium assay; settings: T0254, 240 h
Zymoseptoria tritici [11] = test: Antifungal activity against azoxystrobin-sensitive Zymoseptoria tritici T0403 carrying cytochrome-b G143 allele assessed as inhibition of spore germination after 2 days at 18 degC by spotting on PDA medium assay; settings: T0403, 48 h
Zymoseptoria tritici [12] = test: Antifungal activity against azoxystrobin-sensitive Zymoseptoria tritici T083 carrying cytochrome-b G143 allele assessed as fungal colony perpendicular diameter changes after 10 days at 18 degC by spotting on PDA medium assay; settings: T083, 240 h
Zymoseptoria tritici [13] = test: Antifungal activity against azoxystrobin-resistant Zymoseptoria tritici T0414 carrying cytochrome-b A143 allele assessed as fungal colony perpendicular diameter changes after 10 days at 18 degC by spotting on PDA medium assay; settings: T0414, 240 h
Zymoseptoria tritici [14] = test: Antifungal activity against azoxystrobin-sensitive Zymoseptoria tritici T0209 carrying cytochrome-b G143 allele assessed as fungal growth inhibition after 6 days at 20 degC by microplate without alamar blue assay; settings: T0209, 144 h
Zymoseptoria tritici [15] = test: Antifungal activity against azoxystrobin-sensitive Zymoseptoria tritici T083 carrying cytochrome-b G143 allele assessed as fungal growth inhibition after 6 days at 20 degC by microplate without alamar blue assay; settings: T083, 144 h
Zymoseptoria tritici [16] = test: Antifungal activity against azoxystrobin-sensitive Zymoseptoria tritici T0278 carrying cytochrome-b G143 allele assessed as fungal colony perpendicular diameter changes after 10 days at 18 degC by spotting on PDA medium assay; settings: T0278, 240 h
Zymoseptoria tritici [17] = test: Antifungal activity against azoxystrobin-sensitive Zymoseptoria tritici T0384 carrying cytochrome-b G143 allele assessed as fungal colony perpendicular diameter changes after 10 days at 18 degC by spotting on PDA medium assay; settings: T0384, 240 h
Zymoseptoria tritici [18] = test: Antifungal activity against azoxystrobin-sensitive Zymoseptoria tritici T0211 carrying cytochrome-b G143 allele assessed as fungal colony perpendicular diameter changes after 10 days at 18 degC by spotting on PDA medium assay; settings: T0211, 240 h
Zymoseptoria tritici [19] = test: Antifungal activity against azoxystrobin-resistant Zymoseptoria tritici T0290 carrying cytochrome-b A143 allele assessed as fungal colony perpendicular diameter changes after 10 days at 18 degC by spotting on PDA medium assay; settings: T0290, 240 h
Zymoseptoria tritici [20] = test: Antifungal activity against azoxystrobin-resistant Zymoseptoria tritici T0345 carrying cytochrome-b A143 allele assessed as fungal colony perpendicular diameter changes after 10 days at 18 degC by spotting on PDA medium assay; settings: T0345, 240 h
Zymoseptoria tritici [21] = test: Antifungal activity against azoxystrobin-resistant Zymoseptoria tritici T032 carrying cytochrome-b A143 allele assessed as fungal colony perpendicular diameter changes after 10 days at 18 degC by spotting on PDA medium assay; settings: T032, 240 h
Zymoseptoria tritici [22] = test: Antifungal activity against azoxystrobin-resistant Zymoseptoria tritici T0451 carrying cytochrome-b A143 allele assessed as inhibition of spore germination after 2 days at 18 degC by spotting on PDA medium assay; settings: T0451, 48 h
Zymoseptoria tritici [23] = test: Antifungal activity against azoxystrobin-sensitive Zymoseptoria tritici T0214 carrying cytochrome-b G143 allele assessed as fungal growth inhibition after 6 days at 20 degC by microplate without alamar blue assay; settings: T0214, 144 h
Zymoseptoria tritici [24] = test: Antifungal activity against azoxystrobin-sensitive Zymoseptoria tritici T0210 carrying cytochrome-b G143 allele assessed as fungal colony perpendicular diameter changes after 10 days at 18 degC by spotting on PDA medium assay; settings: T0210, 240 h
Zymoseptoria tritici [25] = test: Antifungal activity against azoxystrobin-sensitive Zymoseptoria tritici T021 carrying cytochrome-b G143 allele assessed as fungal growth inhibition after 6 days at 20 degC by microplate without alamar blue assay; settings: T021, 144 h
Zymoseptoria tritici [26] = test: Antifungal activity against azoxystrobin-resistant Zymoseptoria tritici T0345 carrying cytochrome-b A143 allele assessed as fungal growth inhibition after 6 days at 20 degC by microplate without alamar blue assay; settings: T0345, 144 h
Zymoseptoria tritici [27] = test: Antifungal activity against azoxystrobin-sensitive Zymoseptoria tritici T0148 carrying cytochrome-b G143 allele assessed as fungal growth inhibition after 6 days at 20 degC by microplate without alamar blue assay; settings: T0148, 144 h
Zymoseptoria tritici [28] = test: Antifungal activity against azoxystrobin-sensitive Zymoseptoria tritici T0460 carrying cytochrome-b G143 allele assessed as fungal colony perpendicular diameter changes after 10 days at 18 degC by spotting on PDA medium assay; settings: T0460, 240 h
Zymoseptoria tritici [29] = test: Antifungal activity against azoxystrobin-resistant Zymoseptoria tritici T049 carrying cytochrome-b A143 allele assessed as fungal colony perpendicular diameter changes after 10 days at 18 degC by spotting on PDA medium assay; settings: T049, 240 h
Zymoseptoria tritici [30] = test: Antifungal activity against azoxystrobin-sensitive Zymoseptoria tritici T0384 carrying cytochrome-b G143 allele assessed as inhibition of spore germination after 2 days at 18 degC by spotting on PDA medium assay; settings: T0384, 48 h

Which IC50 (Zymoseptoria tritici [1]) does the source give for CO/C=C(/C(=O)OC)c1ccccc1Oc1cc(Oc2ccccc2C#N)ncn1 [AZOXYSTROBIN] here?
The IC50 was 0.07 µg/mL (≈ 0.174 µM).

What about the IC50 (Zymoseptoria tritici [2]) of the same compound?
Its IC50 is 0.94 µg/mL (≈ 2.33 µM).

And the IC50 (Zymoseptoria tritici [3])?
Its IC50 is 20.1 µg/mL (≈ 49.8 µM).

And the IC50 (Zymoseptoria tritici [4])?
The IC50 was 11.4 µg/mL (≈ 28.2 µM).

What about the IC50 (Zymoseptoria tritici [5]) of the same compound?
Its IC50 is under 0.01 µg/mL.

And the IC50 (Zymoseptoria tritici [6])?
Its IC50 is 15.3 µg/mL (≈ 38 µM).

What about the IC50 (Zymoseptoria tritici [7]) of the same compound?
The IC50 was 11.6 µg/mL (≈ 28.7 µM).

What about the IC50 (Zymoseptoria tritici [8]) of the same compound?
Its IC50 is over 100 µg/mL.

And the IC50 (Zymoseptoria tritici [9])?
The IC50 was over 100 µg/mL.

What about the IC50 (Zymoseptoria tritici [10]) of the same compound?
Its IC50 is 10.8 µg/mL (≈ 26.8 µM).

What about the IC50 (Zymoseptoria tritici [11]) of the same compound?
Its IC50 is under 0.01 µg/mL.

And the IC50 (Zymoseptoria tritici [12])?
Its IC50 is 0.22 µg/mL (≈ 0.545 µM).

And the IC50 (Zymoseptoria tritici [13])?
The IC50 was 11.8 µg/mL (≈ 29.3 µM).

What about the IC50 (Zymoseptoria tritici [14]) of the same compound?
The IC50 was 0.01 µg/mL (≈ 0.0248 µM).

What about the IC50 (Zymoseptoria tritici [15]) of the same compound?
Its IC50 is 0.5 µg/mL (≈ 1.24 µM).

And the IC50 (Zymoseptoria tritici [16])?
The IC50 was 0.17 µg/mL (≈ 0.421 µM).

And the IC50 (Zymoseptoria tritici [17])?
Its IC50 is 0.33 µg/mL (≈ 0.818 µM).

What about the IC50 (Zymoseptoria tritici [18]) of the same compound?
The IC50 was 0.08 µg/mL (≈ 0.198 µM).

And the IC50 (Zymoseptoria tritici [19])?
Its IC50 is 11.2 µg/mL (≈ 27.7 µM).

And the IC50 (Zymoseptoria tritici [20])?
The IC50 was over 100 µg/mL.

What about the IC50 (Zymoseptoria tritici [21]) of the same compound?
The IC50 was 37.8 µg/mL (≈ 93.8 µM).

And the IC50 (Zymoseptoria tritici [22])?
Its IC50 is 29.6 µg/mL (≈ 73.3 µM).

What about the IC50 (Zymoseptoria tritici [23]) of the same compound?
Its IC50 is 0.02 µg/mL (≈ 0.0496 µM).

And the IC50 (Zymoseptoria tritici [24])?
Its IC50 is 0.06 µg/mL (≈ 0.149 µM).

What about the IC50 (Zymoseptoria tritici [25]) of the same compound?
Its IC50 is 0.22 µg/mL (≈ 0.545 µM).

What about the IC50 (Zymoseptoria tritici [26]) of the same compound?
Its IC50 is over 100 µg/mL.

And the IC50 (Zymoseptoria tritici [27])?
The IC50 was 0.21 µg/mL (≈ 0.521 µM).

What about the IC50 (Zymoseptoria tritici [28]) of the same compound?
Its IC50 is 0.09 µg/mL (≈ 0.223 µM).

What about the IC50 (Zymoseptoria tritici [29]) of the same compound?
Its IC50 is 19.4 µg/mL (≈ 48.2 µM).

And the IC50 (Zymoseptoria tritici [30])?
The IC50 was 0.76 µg/mL (≈ 1.88 µM).

Source: ChEMBL document CHEMBL3046287, “Azoxystrobin resistance of French Mycosphaerella graminicola strains assessed by four in vitro bioassays and by screening of G143A substitution” (Crop Prot, 2010)
